Laboratory results: patent publication US7741355B2, “Small-molecule modulators of TRP-p8 activity” (Dendreon Corporation, priority 2006, dated 2010)
Where two headings read alike, the source gives them in different places.

Target: T1, Trp-p8 (Homo sapiens, UniProt Q7Z2W7, T58I)
T1 construct: expressed in transfected cells; host or cells: CHO (Chinese Hamster Ovary) cells
Experiment: ATP viability assay with CHO/Trp-p8 cells at 37° C.
Assay type: cell-based
Settings: CHO/Trp-p8 cells, 24-26 hours at 37° C., 50% reduction in relative cell viability, read-out: EC50
From the text: Human Trp-p8 transfected CHO cells (referred to herein as CHO/Trp-p8) were generated for use in experiments of the present invention. Expression of Trp-p8 polypeptide in this transfectant and the absence of any endogenous expression in the non-transfected CHO was confirmed by western blot and immunofluorescence using a Trp-p8 specific antibody (GS2.20) as well as the calcium flux assay with Icilin (1-[2-hydroxyphenyl]-4-[3-nitrophenyl]-1,2,3,6-tetrahydropyrimidine-2-one) and menthol (2-isopropyl-5-methyl-cyclohexanol). Non-transfected CHO cells were used to establish the specificity of the effects of the compounds observed with CHO/Trp-p8.
This Example discloses an ATP viability assay suitable for screening for effective Trp-p8 agonists. The ATP viability assay described herein employs CHO cells expressing an exogenous Trp-p8 cDNA. This example further establishes that Trp-p8 agonists of the present invention are effective in decreasing the viability of Trp-p8 expressing cells.
The concentration of intracellular ATP declines very rapidly when metabolically active cells undergo necrosis and/or apoptosis. The ATP concentration and consequently the relative cell viability can be measured by established methods using commercially available reagents. In the agonist screening methodology disclosed herein, a compound that specifically decreases the viability of CHO/Trp-p8 cells is referred to as an agonist.
As a primary screen for efficacy and specificity for agonists, both the non-transfected CHO and CHO/Trp-p8 cells were exposed to 1 or 10 μM of test compounds in 1% dimethylsulfoxide (DMSO) or 1% DMSO (control) in a 96-well black walled, black-bottomed, cell-culture treated plate. DMSO was the solvent for all of the compounds tested. After 24-26 hours at 37° C., the cells were lysed and ATP concentration determined via a chemiluminescence assay using a commercially available reagent kit—Cell Titer-Glo (Promega; Madison, Wis.). […] (EC50 is defined herein as the agonist concentration at which there is a 50% reduction in relative cell viability).

T1 sequence (Q7Z2W7 whole entry T58I): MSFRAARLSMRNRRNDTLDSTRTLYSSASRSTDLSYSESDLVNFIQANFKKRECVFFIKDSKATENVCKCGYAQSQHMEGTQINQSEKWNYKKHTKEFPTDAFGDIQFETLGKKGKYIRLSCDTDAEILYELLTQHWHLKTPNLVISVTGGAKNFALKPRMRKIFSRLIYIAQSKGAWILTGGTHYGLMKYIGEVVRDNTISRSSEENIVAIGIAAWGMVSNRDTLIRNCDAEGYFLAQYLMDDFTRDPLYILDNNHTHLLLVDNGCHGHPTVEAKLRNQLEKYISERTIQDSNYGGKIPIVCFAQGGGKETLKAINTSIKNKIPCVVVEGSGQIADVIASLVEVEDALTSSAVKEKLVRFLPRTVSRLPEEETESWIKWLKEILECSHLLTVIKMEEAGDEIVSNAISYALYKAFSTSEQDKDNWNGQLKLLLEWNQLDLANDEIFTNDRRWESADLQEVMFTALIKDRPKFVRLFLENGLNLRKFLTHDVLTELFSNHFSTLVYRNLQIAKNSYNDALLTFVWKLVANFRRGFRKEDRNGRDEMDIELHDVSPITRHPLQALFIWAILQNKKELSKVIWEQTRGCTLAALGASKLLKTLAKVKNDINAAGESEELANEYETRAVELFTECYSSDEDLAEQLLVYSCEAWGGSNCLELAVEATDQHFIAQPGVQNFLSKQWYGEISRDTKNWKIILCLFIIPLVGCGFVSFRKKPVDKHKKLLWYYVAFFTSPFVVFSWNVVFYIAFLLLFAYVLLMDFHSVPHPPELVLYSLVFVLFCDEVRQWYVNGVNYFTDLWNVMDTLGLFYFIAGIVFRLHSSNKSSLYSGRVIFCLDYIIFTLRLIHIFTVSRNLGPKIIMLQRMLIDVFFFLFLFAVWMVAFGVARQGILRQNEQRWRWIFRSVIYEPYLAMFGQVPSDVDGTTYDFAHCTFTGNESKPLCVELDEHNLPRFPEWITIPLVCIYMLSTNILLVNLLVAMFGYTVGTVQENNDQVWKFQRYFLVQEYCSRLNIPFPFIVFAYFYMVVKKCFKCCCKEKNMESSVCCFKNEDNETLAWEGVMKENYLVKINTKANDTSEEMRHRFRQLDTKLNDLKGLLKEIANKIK

SMILES	EC50 (Table 1, Formula I-A) [nM]	EC50 (Table 2, Formula I-B) [nM]	also measured
CC(C)[C@@H]1CC[C@@H](C)C[C@H]1C(=O)NCC(NC(=O)[C@@H](C)N)c1ccccc1 (stereo in doubt) [Compound 28, 2-Isopropyl-5-methyl-cyclohexanecarboxylic acid [2-(2-amino-propionylamino)-2-phenyl-ethyl]-amide]			EC50 (Table 3, Formula I-C): < 20 nM
CCOc1ccc2c(c1)n(CCN)c(=O)n2C(=O)[C@@H]1C[C@H](C)CC[C@H]1C(C)C (stereo in doubt) [Compound 38, 3-(2-Aminoethyl)-5-ethoxy-1-(2-isopropyl-5-methylcyclohexanecarbonyl)-1,3-dihydro-benzoimidazol-2-one]			EC50 (Table 5, Formula I-E): < 20 nM
CCNC(=O)c1ccc2c(c1)n(CCN)c(=O)n2C(=O)[C@@H]1C[C@H](C)CC[C@H]1C(C)C (stereo in doubt) [Compound 47, 3-(2-Amino-ethyl)-1-(2-isopropyl-5-methylcyclohexanecarbonyl)-2-oxo-2,3-dihydro-1H-benzoimidazole-5-carboxylic acid ethyl amide]			EC50 (Table 5, Formula I-E): < 20 nM
CC(C)[C@@H]1CC[C@@H](C)C[C@H]1C(=O)n1c(=O)n(CCN)c2cc(C(=O)Nc3cccnc3)ccc21 (stereo in doubt) [Compound 48, 3-(2-Amino-ethyl)-1-(2-isopropyl-5-methylcyclohexanecarbonyl)-2-oxo-2,3-dihydro-1H-benzoimidazole-5-carboxylic acid pyridine-3-yl amide]			EC50 (Table 5, Formula I-E): < 20 nM
COc1ccc(NC(=O)[C@@H]2C[C@H](C)CC[C@H]2C(C)C)c(NC(=O)[C@@H](C)N)c1 [Compound 1, 2-Isopropyl-5-methyl-cyclohexanecarboxylic acid-[2-(2-aminopropionylamino)-4-methoxylphenyl]amide]	< 20		
CSc1ccc(NC(=O)[C@@H]2C[C@H](C)CC[C@H]2C(C)C)c(C(=O)NCCN)c1 [Compound 2]	< 20		
CC(C)[C@@H]1CC[C@@H](C)C[C@H]1C(=O)Nc1ccc2ccccc2c1OCCN [Compound 3]	< 20		
CSc1ccc(NC(=O)[C@@H]2C[C@H](C)CC[C@H]2C(C)C)c(NCCN)c1 [Compound 4, 2-Isopropyl-5-methyl-cyclohexanecarboxylic acid [2-(2-amino-ethylamino)-4-methylsulfanyl-phenyl]amide]	< 20		
COc1ccc(NC(=O)[C@@H]2C[C@H](C)CC[C@H]2C(C)C)c(C(=O)NCCN)c1 [Compound 5]	< 20		
CC[C@@H](N)C(=O)Nc1cc(OC)ccc1NC(=O)[C@@H]1C[C@H](C)CC[C@H]1C(C)C [Compound 6]	21 to 50		
COc1ccc(NC(=O)[C@@H]2C[C@H](C)CC[C@H]2C(C)C)c(NC(=O)[C@H](N)CO)c1 [Compound 7]	21 to 50		
CC(C)[C@@H]1CC[C@@H](C)C[C@H]1C(=O)Nc1cc2ccccc2cc1NCCN [Compound 8]	21 to 50		
CC(C)[C@@H]1CC[C@@H](C)C[C@H]1C(=O)Nc1ccccc1C(=O)NCCN [Compound 9]	21 to 50		
COc1ccc(NC(=O)[C@@H]2C[C@H](C)CC[C@H]2C(C)C)c(NC(=O)[C@@H](N)CO)c1 [Compound 10]	21 to 50		
CC(C)[C@@H]1CC[C@@H](C)C[C@H]1C(=O)Nc1ccccc1NC(=O)CN [Compound 11]	51 to 100		
COc1ccc(NC(=O)[C@@H]2C[C@H](C)CC[C@H]2C(C)C)c(NC(=O)[C@H](N)[C@H](C)O)c1 [Compound 12]	51 to 100		
COc1ccc(NC(=O)[C@@H]2C[C@H](C)CC[C@H]2C(C)C)c(NC(=O)CN)c1 [Compound 13]	51 to 100		
CC(C)[C@@H]1CC[C@@H](C)C[C@H]1C(=O)Nc1cc(-c2ccco2)nn1CCN [Compound 14, 2-Isopropyl-5-methyl-cyclohexane carboxylic acid-[2-(2-amino-ethyl)-5-furan-2-yl-2H-pyrazol-3-yl]-amide]		< 20	
CC(C)[C@@H]1CC[C@@H](C)C[C@H]1C(=O)Nc1cc(-c2ccccc2)nn1C[C@@H](C)N [Compound 15]		< 20	
CC(C)[C@@H]1CC[C@@H](C)C[C@H]1C(=O)Nc1cc(-c2ccccc2)nn1CCN [Compound 16]		< 20	
CC(C)[C@@H]1CC[C@@H](C)C[C@H]1C(=O)Nc1cc(-c2cccn2C)nn1CCN [Compound 17, 2-Isopropyl-5-methyl-cyclohexane carboxylic acid-[2-(2-amino-ethyl)-5-(1-methyl-1H-pyrrol-2-yl)-2H-pyrazol-3-yl]-amide]		< 20	
CC(C)[C@@H]1CC[C@@H](C)C[C@H]1C(=O)Nc1cc(-c2ccccc2)nn1CCCN [Compound 18]		< 20	

SMILES	EC50 (Table 1, Formula I-A) [nM]	EC50 (Table 2, Formula I-B) [nM]	also measured
CC(C)[C@@H]1CC[C@@H](C)C[C@H]1C(=O)Nc1cc(-c2ccc(N)cc2)nn1CCN [Compound 19]		21 to 50	
CC(C)[C@@H]1CC[C@@H](C)C[C@H]1C(=O)Nc1cc(-c2ccc(O)cc2)nn1CCN [Compound 20]		21 to 50	
CNCCn1nc(-c2ccccc2)cc1NC(=O)[C@@H]1C[C@H](C)CC[C@H]1C(C)C [Compound 21]		21 to 50	
CC(C)[C@@H]1CC[C@@H](C)C[C@H]1C(=O)Nc1cc(-c2ccccc2)nn1C[C@H](C)N [Compound 22]		21 to 50	
CC(C)[C@@H]1CC[C@@H](C)C[C@H]1C(=O)Nc1cc(-c2cccc(C#N)c2)nn1CCN [Compound 23]		21 to 50	
COc1cccc(-c2cc(NC(=O)[C@@H]3C[C@H](C)CC[C@H]3C(C)C)n(CCN)n2)c1 [Compound 24]		21 to 50	
COC(=O)c1ccc(-c2cc(NC(=O)[C@@H]3C[C@H](C)CC[C@H]3C(C)C)n(CCN)n2)cc1 [Compound 25]		51 to 100	
CC(C)[C@@H]1CC[C@@H](C)C[C@H]1C(=O)Nc1cc(-c2cccc(N)c2)nn1CCN [Compound 26]		51 to 100	
CC(C)[C@@H]1CC[C@@H](C)C[C@H]1C(=O)Nc1cc(-c2cccc(O)c2)nn1CCN [Compound 27]		51 to 100	
CC(C)[C@@H]1CC[C@@H](C)C[C@H]1C(=O)NC[C@@H](OCCN)c1ccccc1 [Compound 29]			EC50 (Table 3, Formula I-C): < 20 nM
CC(C)[C@@H]1CC[C@@H](C)C[C@H]1C(=O)NCC(OCCN)c1ccccc1 (stereo partly shown) [Compound 30, 2-Isopropyl-5-methyl-cyclohexanecarboxylic[2-(2-amino-4-ethoxy)-2-phenyl-ethyl]-amide]			EC50 (Table 3, Formula I-C): < 20 nM
CC(C)[C@@H]1CC[C@@H](C)C[C@H]1C(=O)NCC(OCCCN)c1ccccc1 (stereo partly shown) [Compound 31, 2-Isopropyl-5-methyl-cyclohexanecarboxylic[2-(3-amino-4-propoxy)-2-phenyl-ethyl]-amide]			EC50 (Table 3, Formula I-C): 21 to 50 nM
CC(C)[C@@H]1CC[C@@H](C)C[C@H]1C(=O)NCC(NCCN)c1ccccc1 (stereo partly shown) [Compound 32]			EC50 (Table 3, Formula I-C): 51 to 100 nM
CC(C)[C@@H]1CC[C@@H](C)C[C@H]1C(=O)NCCc1ccccc1NCCN [Compound 33, 2-Isopropyl-5-methyl-cyclohexanecarboxylic acid {2-[2-(2-amino-ethylamino)-phenyl]-ethyl}-amide]			EC50 (Table 4, Formula I-D): < 20 nM
CC(C)[C@@H]1CC[C@@H](C)C[C@H]1C(=O)NCCc1ccccc1CN [Compound 34]			EC50 (Table 4, Formula I-D): < 20 nM
CC(C)[C@@H]1CC[C@@H](C)C[C@H]1C(=O)NCCN(C(=O)CN)c1ccccc1 [Compound 35]			EC50 (Table 4, Formula I-D): 21 to 50 nM
COc1ccc2c(c1)n(CCN)c(=O)n2C(=O)[C@@H]1C[C@H](C)CC[C@H]1C(C)C [Compound 36, 3-(2-Aminoethyl)-1-(2-isopropyl-5-methylcyclohexanecarbonyl)-5-methoxy-1,3-dihydro-benzoimidazol-2-one]			EC50 (Table 5, Formula I-E): < 20 nM
CC(C)[C@@H]1CC[C@@H](C)C[C@H]1C(=O)n1c(=O)n(CCN)c2cc(OCCCO)ccc21 [Compound 37, 3-(2-aminoethyl)-5-(3-hydroxypropoxy)-1-(2-isopropyl-5-methylcyclohexanecarbonyl)-1,3-dihydro-benzoimidazol-2-one]			EC50 (Table 5, Formula I-E): < 20 nM
CC(C)[C@@H]1CC[C@@H](C)C[C@H]1C(=O)n1c(=O)n(CCN)c2cc(S(C)(=O)=O)ccc21 [Compound 39]			EC50 (Table 5, Formula I-E): < 20 nM
CC(C)[C@@H]1CC[C@@H](C)C[C@H]1C(=O)n1c(=O)n(CCN)c2cc(OCCO)ccc21 [Compound 40, 3-(2-aminoethyl)-5-(2-hydroxyethoxy)-1-(2-isopropyl-5-methylcyclohexanecarbonyl)-1,3-dihydro-benzoimidazol-2-one]			EC50 (Table 5, Formula I-E): < 20 nM
CC(C)[C@@H]1CC[C@@H](C)C[C@H]1C(=O)n1c(=O)n(CCN)c2cc(C(N)=O)ccc21 [Compound 41, 3-(2-Amino-ethyl)-1-(2-isopropyl-5-methyl-cyclohexanecarbonyl)-2-oxo-2,3-dihydro-1H-benzoimidazole-5-carboxylic acid amide]			EC50 (Table 5, Formula I-E): < 20 nM
